# In patent publication US6465527B1, “Iodinated hydrocarbon pesticide” (priority 1999, dated 2002):
# Where two headings read alike, the source gives them in different places.
# What was measured:
# Type in all cases: in vivo
# [1] = tested on: American cockroach, Periplaneta americana (L.); test: Fumigant toxicity in sealed glass jar, American cockroach; settings: 8-36 adult males; for mortality at 50 µL/jar: Periplaneta americana, inhaled or nasal
# Protocol: (§1) As shown below, Table 1 depicts the toxicity of both monoiodinated and diiodinated hydrocarbons to both the German and the American cockroach after 1 hour of exposure.
# (§2) Shown in Table 2 is the toxicity of both monoiodinated and diiodinated hydrocarbons to the German and American cockroach and the Cowpea weevil after 24 hours of exposure.
# (§3) In this experiment both the insecticidal and nematicidal properties of iodinated hydrocarbons were compared. In determining the insecticidal properties of the iodinated hydrocarbons, both American (Periplaneta americana) and German (Blattella germanica) cockroaches were used. Groups of cockroaches were confined in 0.95-liter glass jars with a small cotton ball. Exactly 50 μl of a test chemical was applied to the cotton ball and the jar was sealed. Knockdown, defined as the inability to walk in a coordinated manner, and mortality were assessed every 15 minutes for the first hour and hourly thereafter for 8 hours and again after 24 hours.
# [2] = tested on: Cowpea weevil, Callosobruchus maculatus (F.); test: Fumigant toxicity, Cowpea weevil; set-up: concentration or dose not given beside the values; settings: 30 adults
# Protocol: as §2
# [3] = tested on: German cockroach, Blattella germanica (L.); test: Fumigant toxicity in sealed glass jar, German cockroach; settings: 30-60 adult males; for mortality at 50 µL/jar: Blattella germanica, inhaled or nasal
# Protocol: as §1, §2, §3
# [4] = tested on: American (Periplaneta americana) and German (Blattella germanica) cockroaches; test: Knockdown and mortality of cockroaches in sealed jar (both species); settings: for Knockdown of cockroaches: within 1 hour after treatment, 50 μl on cotton ball in sealed 0.95-liter jar; for Sensitivity of American cockroaches compared with German cockroaches: in vivo
# Protocol: In this experiment both the insecticidal and nematicidal properties of iodinated hydrocarbons were compared. In determining the insecticidal properties of the iodinated hydrocarbons, both American (Periplaneta americana) and German (Blattella germanica) cockroaches were used. Groups of cockroaches were confined in 0.95-liter glass jars with a small cotton ball. Exactly 50 μl of a test chemical was applied to the cotton ball and the jar was sealed.
# [5] = tested on: root-knot [Meloidogyne arenaria]; test: Greenhouse nematicide test, iodinated C1-C3 hydrocarbons (Experiment 4); settings: for M. arenaria [J2] juvenile populations in soil: 10 days after application, all rates (0.1, 0.2, 0.4 ml/kg soil)
# Protocol: (§4) In this experiment, the nematicidal properties of low molecular weight iodinated hydrocarbons were investigated. The nematicidal properties of iodinated C1-C3 hydrocarbons were evaluated in greenhouse experiments with field soil infested with root-knot [Meloidogyne arenaria] and cyst [Heterodera glycines] nematodes. lodomethane, di-iodomethane, iodoethane, di-iodoethane, and 1-iodopropane were added to soil at rates of 0.1, 0.2 and 0.4 ml/kg soil.
# (§5) The treated soil was kept moist for 10 days when soil samples were taken for nematode analysis and ‘Brim’ soybean [Glycine max] planted. Soybeans were allowed to grow for 8 weeks and then were removed from the soil to determine plant growth, root-knot indices and the number of galls generated by M arenaria. […] All compounds except 1-iodopropane increased fresh shoot weight when applied at ≧0.1 ml/kg soil.
# [6] = tested on: cyst [Heterodera glycines]; test: as above; settings: 10 days after application; all dosages (0.1, 0.2, 0.4 ml/kg soil)
# Protocol: as §4, §5
# [7] = tested on: Heterodera glycines; test: Greenhouse nematicide test, diiodinated C2-C8 hydrocarbons in infested field soil (Experiments 1 and 2); settings: rates ≧5.0 mg
# Protocol: (§6) Additionally, the nematicidal properties of iodinated hydrocarbons were investigated in greenhouse experiments with field soil infested with Meloidogyne arenaria and Heterodera Glycines. Chemicals were added directly to infested solid at rates <100 mg/Kg soil. Treated soil was kept moist (approximately 60 percent field capacity) and uncovered for 7-10 days when samples were collected, and the pots were planted with ‘Brim’ soybean, Glycine max. […] 1,2-diiodoethane (C2), 1,3-diiodopropane (C3), 1,4-diiodobutane (C4), 1,5-diiodopentane (C5), 1,6-diiodohexane (C6), and […] were applied to soil rates of 2.5, 5.0, 7.5, and 10 mg/Kg soil. All rates of C2 and C8 were ineffective in reducing M. arenaria juvenile (J2) populations in preplant samples. This was also true for C2 and J2 populations of H. glycines; however, […] rates ≧5.0 mg suppressed J2 populations of H. glycines. […] H. glycines J2 numbers in final soil samples were generally inversely related to rates for C3-C8. […] Applications of C3-C6 to soil increased shoot weights in a manner directly related to dosages but only in a curvilinear pattern.
# (§7) In this experiment, the nematicidal properties of various diiodinated hydrocarbons were compared. The nematicidal properties of diiodinated C2-C8 normal hydrocarbons was assessed in a greenhouse experiment with field soil infested with Meloidogyne arenaria [Ma] and Heterodera glycines [Hg]. 1,2-diiodoethane [C2], 1,3-diiodopropane [C3], 1,4-diiodobutane [C4], 1.5-diiodopentane [C5], 1,6-diiodohexane [C6] and 1,8-diiodooctane [C8] were applied to soil at rates of 2.5, 5.0, 7.5, and 10.0 mgs/kg soil. The potted soil was kept moist in a greenhouse for 10 days when preplant samples were collected for analysis, and the pots were planted with ‘Brim’ soybean [Glycine max]. After 7 weeks of growth, the plants were removed and final soil samples taken. Data was collected on weights of fresh roots and shoots, root galling by Ma, and numbers of nematodes in soil and roots. All rates of C2 and C8 were ineffective in reducing Ma juvenile [J2] populations in the preplant samples. This was also true for C2 and J2 populations of Hg; however, C8 rates ≧5.0 mg suppressed J2 populations of Hg. […] Hg J2 numbers in final soil samples were generally inversely related to rates for C3-C8. This pattern of suppression in J2 numbers was also applicable to Ma in the final soil samples but only for C3-C6. […] Applications of C3-C6 to soil increased shoot weights in a manner directly related to dosages but non-linear in pattern.
# [8] = tested on: Meloidogyne arenaria; test: as above; settings: for M. arenaria J2 populations in preplant samples: rates ≧5.0 mg
# Protocol: as §6, §7
# [9] = tested on: 'Brim' soybean [Glycine max]; test: Soybean growth in treated soil (Experiments 1 and 2)
# Protocol: as §6, §7
# [10] = 1 h exposure, read-out: % Mortality after 1 h exposure, American cockroach
# [11] = 24 h exposure, read-out: % Mortality after 24 h exposure, American cockroach
# [12] = 1 h exposure, read-out: % Mortality after 1 h exposure, German cockroach
# [13] = 24 h exposure, read-out: % Mortality after 24 h exposure, German cockroach
compound,measurement,setting,value
IC(I)=C(I)I [tetraiodoethylene],mortality at 50 µL/jar,[1]; [10],0%
same,mortality at 50 µL/jar,[1]; [11],0%
same,"% Mortality after 24 h exposure, Cowpea weevil",[2],0%
same,mortality at 50 µL/jar,[3]; [12],0%
same,mortality at 50 µL/jar,[3]; [13],3%
CCI [iodoethane],mortality at 50 µL/jar,[1]; [10],100%
same,mortality at 50 µL/jar,[1]; [11],100%
same,"% Mortality after 24 h exposure, Cowpea weevil",[2],100%
same,Knockdown of cockroaches,[4],100%
same,M. arenaria [J2] juvenile populations in soil,[5],ineffective
same,Gall formation by M. arenaria,[5]; applied at ≧0.2 ml/kg soil,Significant suppression
same,H. glycines J2 populations in soil,[6],ineffective
same,mortality at 50 µL/jar,[3]; [12],100%
same,mortality at 50 µL/jar,[3]; [13],100%
"ICCCCCCI [1,6-diodohexane, 1,6-diiodohexane]",H. glycines J2 populations in preplant samples,[7],virtually eliminated
same,M. arenaria J2 populations in preplant samples,[8],virtually eliminated
same,mortality at 50 µL/jar,[1]; [10],5%
same,mortality at 50 µL/jar,[1]; [11],0%
same,"% Mortality after 24 h exposure, Cowpea weevil",[2],0%
same,Sensitivity of American cockroaches compared with German cockroaches,[4],more sensitive
same,mortality at 50 µL/jar,[3]; [12],0%
same,mortality at 50 µL/jar,[3]; [13],0%
CCCI [1-iodopropane],"% Mortality after 1 h exposure, American cockroach",[1]; 1 h exposure,100%
same,"% Mortality after 24 h exposure, American cockroach",[1]; 24 h exposure,100%
same,"% Mortality after 24 h exposure, Cowpea weevil",[2],97%
same,Knockdown of cockroaches,[4],100%
same,M. arenaria [J2] juvenile populations in soil,[5]; listed as 1 iodopropane,ineffective
same,M. arenaria [J2] juvenile populations in soil,[5]; listed as iodopropane,increased directly
same,Root galling (root knot) by M. arenaria,"[5]; soybean after 8 weeks, rates 0.1-0.4 ml/kg soil",no significant effect
same,H. glycines J2 populations in soil,[6],ineffective
same,"% Mortality after 1 h exposure, German cockroach",[3]; 1 h exposure,100%
same,"% Mortality after 24 h exposure, German cockroach",[3]; 24 h exposure,100%
"ICCCCCCCCI [1,8-diiodooctane]",H. glycines J2 populations in preplant samples,[7],suppressed
same,M. arenaria juvenile (J2) populations in preplant samples,"[8]; all rates (2.5, 5.0, 7.5, 10 mg/Kg soil)",ineffective
same,M. arenaria J2 numbers in final soil samples,"[8]; final soil samples after soybean growth, rates 2.5-10 mg/kg soil",did not change significantly
same,mortality at 50 µL/jar,[1]; [10],0%
same,mortality at 50 µL/jar,[1]; [11],0%
same,Shoot weights of soybean,[9]; 2.5 mg rate,increased shoot weights slightly
same,Shoot weights of soybean,[9]; rates higher than 2.5 mg,no significant effect
same,"% Mortality after 24 h exposure, Cowpea weevil",[2],0%
same,mortality at 50 µL/jar,[3]; [12],0%
same,mortality at 50 µL/jar,[3]; [13],0%
"ICCCCCI [1,5-diiodopentane]",H. glycines J2 populations in preplant samples,[7],virtually eliminated
same,M. arenaria J2 populations in preplant samples,[8],virtually eliminated
same,mortality at 50 µL/jar,[1]; [10],11%
same,mortality at 50 µL/jar,[1]; [11],0%
same,"% Mortality after 24 h exposure, Cowpea weevil",[2],37%
same,Sensitivity of American cockroaches compared with German cockroaches,[4],more sensitive
same,mortality at 50 µL/jar,[3]; [12],0%
same,mortality at 50 µL/jar,[3]; [13],0%
